US6476056B2, “Heterocycle substituted aryloxyaniline derivatives and their use as MDR ligands” (Taisho Pharmaceutical Co., Ltd., priority 1997, dated 2002)

What follows are molecules tested against T1, MDR (Rattus norvegicus, UniProt P16257) (assay: MDR receptor binding assay ([3H]PK11195 displacement)). Details: 50% inhibition of [3H]PK11195 (2 nM) binding; crude mitochondria fraction from rat cerebral cortex; 4° C., 90 minutes.
T1 construct: Crude mitochondria fractions prepared from rat cerebral cortex were used as a receptor sample; from tissue; host or cells: rat cerebral cortex, crude mitochondria fraction
Experimental: Experiment [MDR Receptor Binding Assay]
Crude mitochondria fractions prepared from rat cerebral cortex were used as a receptor sample, and [^3H]PK11195 was used as a [^3H]-labeled ligand.
A binding assay using the [^3H]-labeled ligand was carried out according to the following method as described in Journal of Pharmacology and Experimental Therapeutics, 262, 971(1992).
Preparation of Receptor Sample: Rat cerebral cortex was homogenized using a Teflon-coated homogenizer in a 10 mM HEPES buffer (pH 7.4) containing 0.32 M sucrose in ten volumes of the wet weight. The homogenate was centrifuged at 900×g for 10 minutes, and the resulting supernatant was centrifuged at 9,000×g for 10 minutes. The precipitate was suspended in a HEPES buffer to give a protein concentration of 1 mg/ml, and centrifuged at 12,000×g for 10 minutes. The resulting precipitate was suspended in a 50 mM HEPES buffer (pH 7.4) to give a crude mitochondria fraction.
MDR Binding Assay: Mitochondria sample (1.0 mg protein/ml), [^3H]PK11195 (2 nM) and the test drug were reacted at 4° C. for 90 minutes. After completion of the reaction, the reaction mixture was filtered with suction through a glass filter (GF/B) treated with 0.3% polyethyleneimine, and the radioactivity on the filter was measured by a liquid scintillation spectrometer.
The binding at the reaction in the presence of 10 μM PK11195 was defined as non-specific binding of [3H]PK11195, and the difference between total binding and non-specific binding was defined as specific binding.

Row | Compound | IC50
1 | COc1ccccc1CN(C(C)=O)c1ccccc1Oc1ccc(C)cc1 [Compound 102] | 0.123 nM
2 | COc1ccccc1CN(C(C)=O)c1ccccc1Oc1ccccc1OC [Compound 103] | 0.722 nM
3 | COc1cccc(Oc2ccccc2N(Cc2ccccc2OC)C(C)=O)c1 [Compound 104] | 0.343 nM
4 | COc1ccc(Oc2ccccc2N(Cc2ccccc2OC)C(C)=O)cc1 [Compound 105] | 0.163 nM
5 | COc1ccccc1CN(C(C)=O)c1ccccc1Oc1cccc(F)c1 [Compound 108] | 0.413 nM
6 | COc1ccccc1CN(C(C)=O)c1ccccc1Oc1ccc(F)cc1 [Compound 109] | 0.285 nM
7 | COc1ccccc1CN(C(C)=O)c1ccccc1Oc1ccc(Cl)cc1 [Compound 110] | 8.9 nM
8 | COc1ccccc1CN(C(C)=O)c1ccccc1Oc1ccc(F)cc1F [Compound 112] | 0.376 nM
9 | COc1ccccc1CN(C(C)=O)c1ccc(F)cc1Oc1ccccc1 [Compound 116] | 0.343 nM
10 | COc1ccccc1CN(C(C)=O)c1cc(F)ccc1Oc1ccccc1 [Compound 117] | 0.792 nM
11 | COc1ccccc1CN(C(C)=O)c1c(F)cccc1Oc1ccccc1 [Compound 118] | 0.498 nM
12 | COc1ccccc1CN(C(C)=O)c1ccc(Cl)cc1Oc1ccccc1 [Compound 120] | 0.196 nM
13 | COc1ccccc1CN(C(C)=O)c1cc(Cl)ccc1Oc1ccccc1 [Compound 121] | 2.01 nM
14 | COc1ccccc1CN(C(C)=O)c1cc(C)ccc1Oc1ccccc1 [Compound 124] | 0.343 nM
15 | COc1ccc(Oc2ccccc2)c(N(Cc2ccccc2OC)C(C)=O)c1 [Compound 126] | 8.11 nM
16 | COc1ccccc1CN(C(C)=O)c1ccc(Oc2ccccc2)cc1Oc1ccccc1 [Compound 127] | 3.51 nM
